Patent US4638088A, “Pesticidal biphenylyloxy and biphenylylalkoxy aryl acyl urea compounds” (Union Carbide Corporation, priority 1984, dated 1987)
In brackets after ≈: the same amount, converted by molar mass. Where two headings read alike, the source gives them in different places.

Legend:
Heliothis virescens = test: Tobacco Budworm and Cotton Bollworm Leaf Spray Bait Test (tobacco budworm); format: in vivo; settings: 120 h, read-out: LC50 values, Heliothis Virescens
Method: (§1) Suspension of the test compounds were prepared by dissolving one gram of compound in 50 milliliters of acetone in which had been dissolved 0.1 gram (10 percent of the weight of compound) of an alkylphenoxy polyethoxyethanol surfactant, as an emulsifying or dispersing agent. The resulting solution was mixed into 150 milliliters of water to give roughly 200 milliliters of a suspension containing the compound in finely divided form. The thus-prepared stock suspension contained 0.5 percent by weight of compound. The test concentrations in parts per million by weight employed in the tests described hereinbelow were obtained by appropriate dilutions of the stock suspension with water. Certain of the test compounds were also prepared by dissolving 375 mg of compound in 7.5 ml of dimethylformamide. Fifteen milliliters of acetone containing 37.5 mg (10 percent of the weight of test compound) of an alkylphenoxy polyethoxyethanol surfactant, as a wetting/emulsifying/dispersing agent was added to the dimethylformamide solution. Fifty-two and one-half milliliters of water wasa mixed into the dimethylformamide-acetone mixture to give roughly 75 ml of a suspension containing the compound in solution or in finely divided form. The thus prepared stock suspension contained 0.5 percent by weight of compound. The test procedures were as follows:
(§2) Second instar larvae of the tobacco budworm (weighing about 4.5 mg) (Heliothis virescens, F.) and the cotton bollworm (weighing about 2.5 mg) (Heliothis zea, (Boddie)), obtained commercially and reared on artificial diet at a temperature of 80°±5° F. and a relative humidity of 50±5 percent, constituted the test insects.
(§3) Using a procedure similar to the above, but substituting cotton plants for snapbeans, treated and dried cotton leaves were introduced into 9 cm Petri dishes which were organized into groups of 10-dish sets. One randomly selected larvae was introduced into each dish of a ten dish set and the dishes were closed. The closed dishes were labelled and held at 80°±5° F. for five days. Larvae which were unable to move the length of the body, even upon stimulation, were considered dead. Percent mortality was recorded for various concentration levels. LC50 or concentration required to kill 50 percent of the larvae was determined from the mortality figures.

Heliothis zea = test: Tobacco Budworm and Cotton Bollworm Leaf Spray Bait Test (cotton bollworm); format: in vivo; settings: Helicoverpa zea, 120 h, read-out: LC50 values, Heliothis Zea
Method: as §1, §2, §3

two-spotted mite = test: Mite Larvacidal Test Method; format: in vivo; settings: Tetranychus urticae, 144 h, two-spotted mite larvae, five to six days, read-out: Mortality Rating at 500 ppm, Larvae
Method: Then the larvae are transferred to bean plants 6-8 inches in height. A sufficient number of larvae for testing (50-100) were transferred from TEPP treated leaves to the fresh plants in 24 hours.
Infested Tendergreen bean plants are placed on a revolving turntable. Test compounds are formulated with DMF, acetone, and a 3 to 1 mixture of Triton 172 and 152 (alkylphenoxy polyethoxyethanol surfactant mixture), respectively and then diluted in water to appropriate concentrations of chemical for application to the infested plants by use of a DeVilbiss spray gun with air pressure set at 40 pounds. The volume of 100 milliliters is sufficient to wet the plants to run off. A blank formulation is used for the control.
The treated plants are held at 80°±5° F. and 50±5 percent relative humidity for a period of five to six days, when mortality counts of the larvae are made.

Mexican bean beetle = test: Mexican Bean Beetle Leaf Spray Test; format: in vivo, Epilachna varivestic; settings: Epilachna varivestis, 120 h, Mexican Bean Beetle larvae, five days, read-out: Activity at 500 ppm, MBB
Method: as §1
Fourth instar larvae of the Mexican bean beetle (Epilachna varivestic, Muls.), reared on Tendergreen bean plants at a temperature of 80°±5° F. and 50±5 percent relative humidity, were the test insects. For certain of the tests second instar larvae (weighting about 6 mg) of the Mexican bean beetle (Epilachna varaivestis, Muls.), reared on Sieva Pole lime bean plants at a temperature of 80°±5° F. and 50±5 percent relative humidity, were the test insects.
The test compounds were formulated by diluting the stock suspension with water to give a suspension containing 500 parts of test compound per million parts of final formulation. Potted Tendergreen bean plants of standard height and age were placed on a revolving turntable and sprayed with 100-110 milliliters of test compound formulation by use of a DeVilbiss spray gun set at 40 psig air pressure. This application, which lasted 25 seconds, was sufficient to wet plants to run-off. As a control, 100-110 milliliters of a water-acetone-emulsifier solution containing no test compound was also sprayed on infested plants. When dry, the paired leaves were separated and each was placed in a 9 centimeter Petri dish lined with moistened filter paper. Five randomly selected larvae were introduced into each dish, and the dishes were closed. The closed dishes were labeled and held at a temperature of 80°±5° F., for five days. Although the larvae could easily consume the leaf within 24 to 48 hours, no more food was added. Larvae which were unable to move the length of the body, even upon stimulation, were considered dead. Percent mortality was recorded for various concentration levels.

southern armyworm = test: Southern Armyworm Leaf Spray Bait Test; format: in vivo; settings: Spodoptera eridania, 120 h, read-out: Activity at 500 ppm, SAW, 500 ppm; Southern Armyworm larvae; up to five days
Method: as §1
Larvae of the southern armyworm (Spodoptera eridania, (Cram.), reared on Tendergreen bean plants at a temperature of 80°±5° F. and a relative humidity of 50±5 percent, constituted the test insects.
Potted Tendergreen bean plants of standarad height and age were placed on a revolving turntable and sprayed with 100-110 milliliters of test compound formulation by use of a DeVilbiss spray gun set at 40 psig air pressure. This application, which lasted 25 seconds, was sufficient to wet plants to run-off. As a control, 100-110 milliliters of a water-acetone-emulsifier solution containing no test compound was also sprayed on infested plants. When dry, the paired leaves were separated and each one was placed in a 9 centimeter Petri dish lined with moistened filter paper. Five randomly selected larvae were introduced into each dish and the dishes were closed. The closed dishes were labeled and held at 80°-85° F. for up to five days. Although the larvae could easily consume the whole leaf within twenty-four hours, no more food was added. Larvae which were unable to move the length of the body, even upon stimulation by prodding, were considered dead. Percent mortality was recorded for various concentration levels.

[1] = Heliothis Zea, second instar larvae, five days

SMILES | LC50 (Heliothis virescens) [µg/mL] | LC50 (Heliothis zea; [1]) [µg/mL] | mortality at 500 ppm (Mexican bean beetle) [%] | mortality at 500 ppm (southern armyworm) [%] | also measured
O=C(NC(=O)c1c(F)cccc1F)Nc1cc(Cl)c(OCc2ccccc2-c2ccccc2)c(Cl)c1 [Example 39] | 16 (≈ 30.3 µM) | 5 (≈ 9.48 µM) |  |  | 
O=C(NC(=O)c1c(F)cccc1F)Nc1ccc(Cl)cc1 [Comparative Example A, reference compound] | 31 (≈ 99.8 µM) |  |  |  | LC50 (Heliothis zea): 500 µg/mL (≈ 1610 µM)
Cc1cc(NC(=O)NC(=O)c2c(F)cccc2F)c(C)c(Cl)c1Oc1ccccc1-c1ccccc1 [Example 36] | 9 (≈ 17.8 µM) | 2.2 (≈ 4.34 µM) |  |  | 
Cc1ccc(Oc2ccc(NC(=O)NC(=O)c3c(F)cccc3F)cc2Cl)c(C)c1 [Comparative Example J, reference compound] | > 100 | > 100 |  |  | 
Cc1cc(NC(=O)NC(=O)c2c(F)cccc2Cl)c(C)c(Cl)c1Oc1ccccc1-c1ccccc1 [Example 40] |  |  |  |  | mortality at 500 ppm (two-spotted mite): 71 to 100%
O=C(NC(=O)c1c(F)cccc1F)Nc1cc(Cl)c(Oc2cccc3ccccc23)c(Cl)c1 [Comparative Example K, reference compound] | 500 (≈ 1030 µM) | 30 (≈ 61.6 µM) |  |  | 
Cc1cc(NC(=O)NC(=O)c2c(F)cccc2F)c(C)c(Cl)c1Oc1ccc(Cl)cc1-c1ccccc1 [Example 38] | 1.9 (≈ 3.51 µM) | 1.6 (≈ 2.96 µM) |  |  | 
Cc1cc(NC(=O)NC(=O)c2ccccc2F)c(C)c(Cl)c1Oc1ccc(Cl)cc1-c1ccccc1 [Example 18] |  |  | 71 to 100 | 71 to 100 | 
Cc1cc(NC(=O)NC(=O)c2c(F)cccc2F)c(C)c(Cl)c1Oc1ccc(Cl)cc1-c1ccccc1 [Example 20] |  |  | 71 to 100 | 71 to 100 | 
Cc1cc(NC(=O)NC(=O)c2ccccc2Cl)c(C)c(Cl)c1Oc1ccc(Cl)cc1-c1ccccc1 [Example 17] |  |  | 71 to 100 | 71 to 100 | 
Cc1cc(NC(=O)NC(=O)c2c(F)cccc2F)c(C)c(Cl)c1Oc1ccc(-c2ccccc2)cc1Cl [Example 14] |  |  | 71 to 100 | 71 to 100 | 
Cc1cc(NC(=O)NC(=O)c2c(F)cccc2Cl)c(C)c(Cl)c1Oc1ccccc1-c1ccccc1 [Example 5] |  |  | 71 to 100 | 71 to 100 | 
Cc1cc(NC(=O)NC(=O)c2ccccc2Cl)c(C)c(Cl)c1Oc1ccccc1-c1ccccc1 [Example 37] | 4 (≈ 7.91 µM) | 1.7 (≈ 3.36 µM) |  |  | 
